Results: publication PMC3161871, “Heteroarylketones inhibit astroglial interleukin-6 expression via a STAT3/NF-κB signaling pathway” (Journal of Neuroinflammation, 2011)

How the values were obtained:
[1] = test system: LPS-induced IL-6 release in primary mouse astrocytes; test: LPS-induced IL-6 release in primary mouse astrocytes (ELISA); format: cell-based; conditions: 1 μg/ml LPS, 20 μM compound, 24 h
Procedure: According to Löffler, astrocyte-rich primary cell cultures were started with brains of newborn mice and rats and were maintained in Dulbecco's modified Eagle's medium (DMEM) for 33 days at 37°C in a humified atmosphere with 95% air/5% CO2.
Measurements of IL-6 in conditioned medium and murine plasma samples were done by means of human- or murine-specific IL-6 Cytoset kits (Invitrogen, Darmstadt, Germany) according to manufacturer's protocols.
Figure 5 Suppression of LPS-induced IL-6 release in primary murine astrocytes by selected HAK compounds. […] Astrocytes derived from newborn mice and rats were cultivated for 33 days followed by stimulation with 1 μg/ml LPS and treatment with compounds HAK-2 and HAK-5 (20 μM). After 24 hours conditioned media were analyzed with IL-6 specific ELISA. Data (mean ± SD) were obtained from experiments carried out in quadruplicate and statistical analysis was performed using the paired t test. Amount of IL-6 in LPS-treated control sample was set to 100%. ns, not significant; **p < 0.01; ***p < 0.001.
Primary murine astrocytes stimulated with 1 μg/ml LPS were co-treated with compounds HAK-2 and HAK-5 at a concentration of 20 μM each for 24 h. The observed effect of compounds HAK-2 and HAK-5 on LPS stimulation was similar to that of OSM-induced IL-6 expression in human U343 glioma cells (Figures 5A and 5B). […]

[2] = test system: LPS-induced IL-6 expression in C57/B6 mice; test: LPS-induced acute septic shock model (IL-6 in plasma, hippocampus, cortex); format: in vivo, mouse; conditions: 1 mg/kg LPS i.p., HAK-2 in parallel, 2 h
Procedure: A total number of 20 C57/B6 mice at the age of 5 months with an initial body weight of 22 g to 30 g was analyzed in this study. Mice were randomly assigned to 2 groups of control mice (injection of saline or LPS; n = 6 each) and 1 group of LPS-treated mice co-injected with compound HAK-2 (n = 8). Animals were housed at the Experimental Animal Core Facility of the University of Leipzig. The study was approved by the Regierungspräsidium Leipzig, License # TVV 28/07 on November 14, 2007. To induce septic shock and acute inflammation, 14 mice were injected intraperitoneally (i.p.) with 1 mg LPS (Serotyp 055:B5)/kg body weight. Saline injection i.p. was used as control treatment (n = 6). […] Two hours post treatment mice were sacrificed by CO2 inhalation and tissue samples from hippocampus and cortex as well as plasma were prepared as described later.
Mouse brain samples for qRT-PCR were prepared from 6 - 8 animals per group. After removal of the brain, the tissue samples were flushed shortly with ice cold saline and placed briefly on filter paper. Cortex and hippocampus were prepared, weighted and snap frozen in liquid nitrogen. Samples were stored at -80°C until RNA isolation. […]
Total RNA of cultured cells and homogenized mouse brain tissue samples was isolated using RNA isolation kit "NucleoSpin RNA II" from Macherey and Nagel. RNA quantity was measured by spectrophotometrical quantification (NanoDrop 2000, Peqlab, Erlangen, Germany). […] Quantitative real-time PCR was performed with QuantiFast SYBR Green PCR Master mix (Qiagen, Hilden, Germany) using Rotorgene 3000 system (Corbett, Sydney, Australia). […] Data were analyzed by Rotorgene 3000 Software version 6.0 by comparative quantitation. […]
Figure 6 Suppression of LPS-induced IL-6 expression in vivo by compound HAK-2. […] After 2 hours treatment, samples from hippocampus (A), cortex (B) and plasma (C) were prepared and analyzed by qRT-PCR and ELISA, respectively. […] Statistically significant differences between LPS group and LPS + HAK-2 group were calculated using the unpaired t-test (*p < 0.05; **p < 0.01; ***p < 0.001).

[3] = Brain bioavailability by LC-MS/MS of mouse plasma and brain samples; format: in vivo
Procedure: Based on the results obtained from primary murine astrocytes, we reasoned that HAK compounds might also suppress elevated IL-6 expression in vivo. Therefore, bioactivity of the compound HAK-2 was analyzed in the LPS-induced mouse septic shock model. In preparation of this in vivo study, selected HAK compounds were characterized in detail concerning brain bioavailability. […] For further in vivo investigations compound HAK-2 with a logBB of -0.22 was selected.

C[C@H](NC(=O)OCc1ccccc1)C(=O)N1CCC[C@H]1C(=O)c1nc2ccccc2s1 [HAK-2, Z-Ala-Pro-BTh]
Reduction of LPS-induced IL-6 expression [1]: 60% | Reduction of induced IL-6 mRNA in cortex [2]: 53% | Reduction of induced IL-6 mRNA in hippocampus [2]: 60% | Reduction of plasma level of IL-6 protein vs LPS alone [2]: 55% | logBB [3]: -0.22
